# Results: patent US5157032A, “Mixed ligand complexes and uses thereof as binding agents and probes to DNA” (The Trustees of Columbia University In The City of New York, priority 1990, dated 1992)
# Entries after “also recorded” stand apart in the source; their conditions may differ. Where two headings read alike, the source gives them in different places.
# Columns and labels:
# calf thymus DNA [1] = test: Spectroscopic properties (absorption, emission, lifetime) on binding to calf thymus DNA; details: for Emission Enchantment (I/Io): 7 μM Ru, 40:1 nucleotide/metal, 20° C.
# Method: Instrumentation: NMR spectra were recorded on a Varian VXR-300MHz spectormeter. FABS were performed using a VG Analytical 7070EQ Mas Spectrometer (78), and elemental analyses were done by Galbraith Laboratories in Nashville, Tenn. UV-Visible absorbance spectal were recorded on a Varian CARY-219 absorbance spectorphotometer. Extinction coefficients for the compounds were determined versus ruthenium concentrations obtained by atomic absorption spectroscopy with known ruthenium standards. [Ru(bpy)3 ]Cl2 solutions were also employed for these determinations as an internal standard. A varian AA-875 atomic absorption spectrophotometer was used for these determinations.
# Emission spectra were measured on a Perkin-Elmer LS-5 fluorescence spectrometer. The samples were excited at their corresponding isosbestic points. All the measurements were made at 20° C. in a thermostatted cuvette holder with 3 nm entrance slit and 10 nm exit slit. Ruthenium solutions employed were 7 μM in concentration and claf thymus DNA was added to a ration of 40:1 nucleotide/metal; ruthenuim-DNA soltuions were allowed to incubate for 15 minutes before enhanced spectra were recorded. The emission enhancement factors were measured by comparing the intensitites at the emission spectral mixima in the absence ad presence of DNA, under similar conditions.
# The limunescence lifetime measurements were done on a PRA SPC (single photon countining) spectometer with some minor modifications. The samples were excited with a nitrogen filled tnynratron gated flash lamp and the data were collected using a Tracor Northern 1710 multichannel analyser. The data were then transferred to a PDP-11/03 computer and deconvoluted with PRA software. […] concentrated solution of DNA (5mM DNA-phosphate) in buffer was added to a solution of the metal complex (4 μM) in buffer and allowed to equilibrate. Lifetimes of the samples were measured 0.5 hr after the metal complexes were mixed with DNA. All measurements were made at 20° C. and under air saturated conditions.
# Furthermore, for all the complexes, this electronic transition is perturbed on binding to DNA.
# calf thymus DNA [2] = test: Absorption titration with calf thymus DNA (half-reciprocal, hypochromism); format: binding; details: in words; for binding to DNA: absorption changes too small for Kb
# Text: In plots of [DNA]/(εA -εF) versus [DNA], Kb is given by the ratio of the slope to intercept.
# Solubility in buffer = format: physicochemical; details: for Solubilities in Buffer: chloride salts, 5 mM Tris, 50 mM NaCl, pH 7.5, 24 hrs., 25° C., SD in parentheses; for solubility: in words
# Method: Measurement of Solubilities: Solubilities of the compounds wre measured by preparing saturated solutions of metal complex in buffer (50mM NaCl, 5 mM Tris, pH 7.5) and allowng the suspensions to equilibrate for 24 hours at 25 C. After that time, the solutions were spun down in an Eppendorff microcentrifuge at 15,000 rev/min for 2 minutes and the supernatant was carefully removed by pipette. After dilution, the ruthenuim concentrattions were measured by UV-visible absorbance.
# calf thymus DNA [3] = test: Equilibrium dialysis of racemic complexes against calf thymus DNA (Scatchard, dialysate CD); format: binding; parameters: Km × 10) equilibrium dialysis (intrinsic binding constant Kb): scale not given here; details: for Site size: fit to McGhee and von Hippel equation; for aggregation in solution / binding curve type (cooperativity) / binding affinity for DNA / Enantioselectivity: in words; for binding affinity for DNA: comparative; for Km × 10) equilibrium dialysis (intrinsic binding constant Kb): 5 mM Tris, 50 mM NaCl, pH 7.5, standard deviation in parentheses; for Enantioselectivity: dialysate circular dichroism
# Method: Equilibrium Dialysis: Equlibrium dialysis of the reacemic metal complexes was perforemd against calf-thymus DNA using procedures described previously. (74) The buffer used was 5 mM Tris, 50 mM NaCl at pH 7.5. Samples were agitated on a shaker bath during equilibration which occurred after three to five days, as determined by control samples containing no DNA. After equilibration, volumes of liquid inside and outside the dialysis bags were determined (approximately 1 and 3 mls, respectively) and circular dichroism of the dialysate was meaxured on a Jasco J-40 spectropolarimeter. Final ruthenium concentration inside and outside the bags were measured by visible absorbance. Data anaylsis was performed on a VAX-780 using non-linear least squares analysis.
# Equilibrium Dialysis: Equilibrium binding constants for the metal complexes with DNA may be determined classically by equilibrium dialysis. Calf thymus DNA was dialyzed against the series of mixed ligand complexes using a broad range of ruthenium concentrations. […] The results have been plotted according to Scatchard (88), where r is the ratio of bound metal to DNA-phosphate concentration, and cf is the concentration of free metal complex. The data were fit by non-linear least squares analysis to the McGhee and von Hippel equation (8945) governing random non-cooperative binding to a lattice,
# where r is the ratio of bound concentration of ruthenium to the concentration of DNA-phosphate, cf is the concentration of ruthenium free in soltuion, Kb the intrinsic binding constant, and the integer /, which measures the degree of anti-cooperativeity, is the size of a binding site in base pairs. The curves shown reflect the best fit after variation of two parameters: the intrinsic binding constant, Kb, and binding stie size, /. For those complexes were cooperatively was observed, the equation (89) incorporating a cooperativity parameter was used.
# Equilibrium dialysis experiments additionally offer the opportunity to examine any enantiomeric selectivities associated with binding. After dialysis of the DNA against the racemic mixture, optical activity observed in the dialysate refelects an enrichment in the dialysate in the less favored enantiomer. For most of the complexes, optical activity was found in the dialysate. Values for the extent of enantiomeric selectivity could not be quanitated in the absence of determinations of DE and assignments of absolute configuration. Assuming that the signs of the circular chroism in the ultraviolet ligand bands are the same for the these ligands as that for the parent phenanthroline complex, (90) we have assigned the absolute configuration of these complexes by comparison to spectra for enantiomers of Ru(phen)3^2+ and have compared levels of enantioselectivity qualitatively through measurements of circular dichroic intensity per rutheium bound. Based upon these assumptions, we find enantionmeric selectivities for the polyridyl complexes to reflect an enrichment in the isomer in the dialysate and the preferential binding of the isomer to the right-handed DNA. This observation is consistent with the preferential intercalation of isomers found earlier for Ru(phen)3^2+ in right-handed B-DNA. (63) We may also compare relative enantioselectivities for different ancillary ligands. […] The same comparison may be seen qualitatively between Ru(phen)2 DIP^2+ and Ru(bpy)2 DIP^2+.
# B-form DNA = details: cited from earlier work
# pBR322 DNA = test: Unwinding of supercoiled pBR322 DNA (topoisomerase I assay); details: for EC50: read-out: Unwinding concentration, needed to unwind 11 of 22 supercoils, [DNA] 47 μM for phi complexes, 31.5 μM others, 60 min
# DNA = test: Luminescence in presence of DNA (preliminary); format: binding; details: in words
# Text: Ru(phen)2 (dppz)^2+, and Ru(dip)2 (dppz)^2+ seem have similar behavior as described above. […] We are presently tethering this complexes, Ru(bpy)2 (dppz)^2+, Ru(dppz)2 phen^2+, and Ru(phen)2 (dppz)^2+ to oligonucleotides to develop non-radioactive luminescent DNA probes for both heterogeneous and homogeneous assay systems. The probes, constructed in this way should luminesce only upon finding its target sequence.
# [4] = system: distamycin binding sites on end-labeled DNA fragment; details: cited crystallography; cited from earlier work
# [5] = system: distamycin binding sites on end-labeled DNA fragment; test: Footprinting of distamycin; details: by Rh(phi)2 (bpy)^3+, 5'-end-labeled fragment
# [6] = system: EcoRI site on end-labeled DNA fragment; details: cited from earlier work
molecule,measurement,setting,value
[Ru+2].c1ccc(-c2ccnc3c2ccc2c(-c4ccccc4)ccnc23)cc1.c1ccc(-c2ccnc3c2ccc2c(-c4ccccc4)ccnc23)cc1.c1cnc2c(c1)ccc1cccnc12 [Ru(DIP)2 (phen)^2+],Emission Enchantment (I/Io),calf thymus DNA [1],2.14 I/Io
same,hypochromism / absorption change on DNA addition,calf thymus DNA [2],greatest change in absorption
same,Solubilities in Buffer,Solubility in buffer,0.18 (.01) mM
same,solubility,Solubility in buffer; listed as Ru(DIP)2 (phen)2,only sparingly soluble in the buffer solution
same,solubility,Solubility in buffer; listed as Ru(DIP)2)phen)^2+,too insoluble
same,Site size,calf thymus DNA [3],cooperative
same,aggregation in solution,calf thymus DNA [3],tend to agfregate in solution
same,binding curve type (cooperativity),calf thymus DNA [3],cooperatiove binding
same,binding affinity for DNA,calf thymus DNA [3],binding similar to that of Ru(phen2 DIP^2+
"[Ru+2].c1ccc(-c2ccnc3c2ccc2c(-c4ccccc4)ccnc23)cc1.c1ccc(-c2ccnc3c2ccc2c(-c4ccccc4)ccnc23)cc1.c1ccc(-c2ccnc3c2ccc2c(-c4ccccc4)ccnc23)cc1 [Ru(DIP)3^2+, reference compound]",enantiomer selectively bound by B-form DNA,B-form DNA,Δ-enantiomers
same,aggregation in solution,calf thymus DNA [3],extensive aggregation
same,binding affinity for DNA,calf thymus DNA [3],appear to bind DNA more avidly
[Ru+2].c1ccc(-c2ccccn2)nc1.c1ccc(-c2ccccn2)nc1.c1cnc2c(c1)ccc1cccnc12 [Ru(bpy)2 (phen)^2+],Emission Enchantment (I/Io),calf thymus DNA [1],1.12 I/Io
same,hypochromism / absorption change on DNA addition,calf thymus DNA [2],litle hypochromic effect
same,binding to DNA,calf thymus DNA [2],bound very weakly
same,Km × 10) equilibrium dialysis (intrinsic binding constant Kb),calf thymus DNA [3],0.7(.07) × 10
same,Site size,calf thymus DNA [3],10-14 base pairs
same,EC50,pBR322 DNA,69 µM
"[Ru+2].c1ccc(-c2ccccn2)nc1.c1ccc(-c2ccccn2)nc1.c1ccc(-c2ccccn2)nc1 [Ru(bpy)3^2+, reference compound]",Emission Enchantment (I/Io),calf thymus DNA [1],1.06 I/Io
same,intercalation,calf thymus DNA [1]; in words,neither intercalates nor surface-binds to the helix
same,hypochromism / absorption change on DNA addition,calf thymus DNA [2],litle hypochromic effect
same,binding to DNA,calf thymus DNA [2],bound very weakly
same,Km × 10) equilibrium dialysis (intrinsic binding constant Kb),calf thymus DNA [3],0.7(.13) × 10
same,Site size,calf thymus DNA [3],6-12 base pairs
same,unwinding of the helix,pBR322 DNA; in words,shows little significant unwinding of the helix
same,EC50,pBR322 DNA,650 µM
[Ru+2].c1ccc(-c2ccnc3c2ccc2c(-c4ccccc4)ccnc23)cc1.c1ccc(-c2ccnc3c2ccc2c(-c4ccccc4)ccnc23)cc1.c1ccc2nc3c4cccnc4c4ncccc4c3nc2c1 [Ru(dip)2 (dppz)^2+],luminescence dependence on DNA,DNA,luminesce only in the presence of DNA but not in the presence of H2 O (or Buffer) alone
[Ru+2].c1ccc(-c2ccnc3c2ccc2c(-c4ccccc4)ccnc23)cc1.c1cnc2c(c1)ccc1cccnc12.c1cnc2c(c1)ccc1cccnc12 [Ru(phen)2 (DIP)^2+],Emission Enchantment (I/Io),calf thymus DNA [1],2.06 I/Io
same,hypochromism / absorption change on DNA addition,calf thymus DNA [2],greatest change in absorption
same,Solubilities in Buffer,Solubility in buffer,9. (1.2) mM
same,solubility,Solubility in buffer,only sparingly soluble in the buffer solution
same,Site size,calf thymus DNA [3],cooperative
same,aggregation in solution,calf thymus DNA [3],tend to agfregate in solution
same,binding curve type (cooperativity),calf thymus DNA [3],cooperatiove binding
same,EC50,pBR322 DNA,9 µM
[Ru+2].c1ccc2nc3c4cccnc4c4ncccc4c3nc2c1.c1cnc2c(c1)ccc1cccnc12.c1cnc2c(c1)ccc1cccnc12 [Ru(phen)2 (dppz)^2+],luminescence dependence on DNA,DNA,luminesce only in the presence of DNA but not in the presence of H2 O (or Buffer) alone
"O=C1c2cccnc2-c2ncccc21.[Ru+2].c1cnc2c(c1)ccc1cccnc12.c1cnc2c(c1)ccc1cccnc12 [Ru(phen)2 (flone)^2+, [Ru(phen)2 (4,5-diazafuorene-9-one)]Cl2]",binding to DNA,calf thymus DNA [2],bound very weakly
same,Solubilities in Buffer,Solubility in buffer,60. (2.2) mM
same,Enantioselectivity,calf thymus DNA [3],no enantiomeric discrimination is apparent
same,Enantioselectivity,calf thymus DNA [3]; listed as Ru(phen) (flone)Cl,none
same,Site size,calf thymus DNA [3],9-12 base pairs
same,binding affinity for DNA,calf thymus DNA [3],indistinguishable from that for Ru(phen)2 bpy^2+
same,binding affinity for DNA,calf thymus DNA [3]; listed as Ru(phen)^2+2. flone,much lower than would be expected based upon their solvent accessible surfaces
N=C1C(=N)c2ccccc2-c2ccccc21.[Ru+2].c1cnc2c(c1)ccc1cccnc12.c1cnc2c(c1)ccc1cccnc12 [Ru(phen)2 (phi)^2+],hypochromism / absorption change on DNA addition,calf thymus DNA [2],hypochromism and a large red shift
same,Solubilities in Buffer,Solubility in buffer,0.17 (.01) mM
same,Site size,calf thymus DNA [3],2-3 base pairs
same,intensity in circular dichroism per ruthenium bound,calf thymus DNA [3]; relative to Ru(bpy)2 phi^2+,more than three times greater
same,Unwinding Angle,pBR322 DNA,26 °
same,Unwinding Angle,pBR322 DNA; per molecule of bound complex,26 degrees
same,EC50,pBR322 DNA,1.2 µM
"[Ru].c1cnc2c(c1)ccc1cccnc12.c1cnc2c(c1)ccc1cccnc12.c1cnc2c(c1)ccc1cccnc12 [Ru(phen)3^2+, reference compound]",Emission Enchantment (I/Io),calf thymus DNA [1],1.87 I/Io
same,enantiomer selectively bound by B-form DNA,B-form DNA,Δ-enantiomers
same,Solubilities in Buffer,Solubility in buffer,159. (5.3) mM
same,Site size,calf thymus DNA [3],4 base pairs
same,Unwinding Angle,pBR322 DNA,19 °
same,Unwinding Angle,pBR322 DNA; per molecule of bound complex,19 degrees
same,EC50,pBR322 DNA,9 µM
Cn1cc(NC(=O)c2cc(NC(=O)c3cc(NC=O)cn3C)cn2C)cc1C(=O)NCCC(=N)N [distamycin],binding site size by crystal structure,[4],six
same,distamycin binding sites footprinted,[5],"strong A6 binding site (41-47 bp); also recorded: AATT (67-70, 119-12), TAAT (73-76), AAATT (101-105), and TTAT (107-110)"
EcoRI: restriction endonuclease EcoRI,crystal binding site size,[6]; cited crystallography,ten
same,DNA contact length of EcoRI,[6]; x-ray co-crystal,10 base pairs
